Assay [1] is described as follows: PDE panel inhibitory constant (Ki) determination. It is filed as biochemical. As to conditions: PDE1D. The protocol:
(§1) Inhibitory constant (Ki) values for Compound 1 were determined against a full panel of phosphodiesterase family members. […] In contrast, potency of Compound 1 for PDE1 A, B and C is roughly equivalent.

In assay [2] the target is T1, (Homo sapiens, UniProt Q08499).
T1 construct: Ki; other: PDE1D
As to the kind of experiment: PDE panel inhibitory constant (Ki) determination. As to conditions: PDE1D. It is filed as biochemical. The protocol: as §1

The test system of assay [3] is PDE1 (Bovine Brain). The assay can be described thus: PDE panel inhibitory constant (Ki) determination. It is filed as biochemical. The protocol:
as §1

The target in assay [4] is T2, PDE1 (Bovine Brain).
T2 construct: Ki; other: PDE1 (Bovine Brain)
As to the kind of experiment: PDE panel inhibitory constant (Ki) determination. It is filed as biochemical. The protocol:
as §1

The next assay deals with PDE10A (Homo sapiens, UniProt Q9Y233). As to the kind of experiment: PDE panel inhibitory constant (Ki) determination. It is filed as biochemical. The protocol:
as §1

A further assay has as its target PDE11A (Homo sapiens, UniProt Q9HCR9). The assay can be described thus: PDE panel inhibitory constant (Ki) determination. It is filed as biochemical. The protocol: as §1
The next assay deals with PDE1A (Homo sapiens, UniProt P54750). As to the kind of experiment: PDE panel inhibitory constant (Ki) determination. It is filed as biochemical. The method, then:
as §1

The target of the next assay is PDE1B (Homo sapiens, UniProt Q01064). The assay can be described thus: PDE panel inhibitory constant (Ki) determination. It is filed as biochemical. The protocol:
as §1

A further assay deals with PDE1C (Homo sapiens, UniProt Q14123). The assay can be described thus: PDE panel inhibitory constant (Ki) determination. It is filed as biochemical. The method, then: as §1
PDE1C, sequence (Q14123 whole entry, species assumed): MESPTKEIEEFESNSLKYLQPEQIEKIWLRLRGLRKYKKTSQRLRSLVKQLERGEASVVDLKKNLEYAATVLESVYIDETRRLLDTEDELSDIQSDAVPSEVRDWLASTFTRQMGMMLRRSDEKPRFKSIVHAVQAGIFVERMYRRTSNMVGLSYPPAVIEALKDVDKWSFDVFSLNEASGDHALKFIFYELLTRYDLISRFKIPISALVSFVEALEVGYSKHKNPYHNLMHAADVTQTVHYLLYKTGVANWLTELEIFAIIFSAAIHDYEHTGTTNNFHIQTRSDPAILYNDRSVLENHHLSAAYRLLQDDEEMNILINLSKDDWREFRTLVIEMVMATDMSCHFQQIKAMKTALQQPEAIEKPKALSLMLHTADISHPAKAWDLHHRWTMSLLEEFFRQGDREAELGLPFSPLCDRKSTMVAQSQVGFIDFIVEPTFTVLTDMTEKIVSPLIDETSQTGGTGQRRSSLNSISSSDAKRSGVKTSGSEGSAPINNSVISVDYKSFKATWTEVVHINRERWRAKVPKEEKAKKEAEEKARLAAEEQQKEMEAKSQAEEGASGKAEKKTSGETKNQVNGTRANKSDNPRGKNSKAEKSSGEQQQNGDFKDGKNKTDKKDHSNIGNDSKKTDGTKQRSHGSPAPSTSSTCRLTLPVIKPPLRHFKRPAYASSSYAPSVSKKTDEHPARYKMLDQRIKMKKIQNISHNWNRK
Another assay deals with PDE2A (Homo sapiens, UniProt O00408). As to the kind of experiment: PDE panel inhibitory constant (Ki) determination. It is filed as biochemical. The method, then: as §1
PDE2A, sequence (O00408 whole entry, species assumed): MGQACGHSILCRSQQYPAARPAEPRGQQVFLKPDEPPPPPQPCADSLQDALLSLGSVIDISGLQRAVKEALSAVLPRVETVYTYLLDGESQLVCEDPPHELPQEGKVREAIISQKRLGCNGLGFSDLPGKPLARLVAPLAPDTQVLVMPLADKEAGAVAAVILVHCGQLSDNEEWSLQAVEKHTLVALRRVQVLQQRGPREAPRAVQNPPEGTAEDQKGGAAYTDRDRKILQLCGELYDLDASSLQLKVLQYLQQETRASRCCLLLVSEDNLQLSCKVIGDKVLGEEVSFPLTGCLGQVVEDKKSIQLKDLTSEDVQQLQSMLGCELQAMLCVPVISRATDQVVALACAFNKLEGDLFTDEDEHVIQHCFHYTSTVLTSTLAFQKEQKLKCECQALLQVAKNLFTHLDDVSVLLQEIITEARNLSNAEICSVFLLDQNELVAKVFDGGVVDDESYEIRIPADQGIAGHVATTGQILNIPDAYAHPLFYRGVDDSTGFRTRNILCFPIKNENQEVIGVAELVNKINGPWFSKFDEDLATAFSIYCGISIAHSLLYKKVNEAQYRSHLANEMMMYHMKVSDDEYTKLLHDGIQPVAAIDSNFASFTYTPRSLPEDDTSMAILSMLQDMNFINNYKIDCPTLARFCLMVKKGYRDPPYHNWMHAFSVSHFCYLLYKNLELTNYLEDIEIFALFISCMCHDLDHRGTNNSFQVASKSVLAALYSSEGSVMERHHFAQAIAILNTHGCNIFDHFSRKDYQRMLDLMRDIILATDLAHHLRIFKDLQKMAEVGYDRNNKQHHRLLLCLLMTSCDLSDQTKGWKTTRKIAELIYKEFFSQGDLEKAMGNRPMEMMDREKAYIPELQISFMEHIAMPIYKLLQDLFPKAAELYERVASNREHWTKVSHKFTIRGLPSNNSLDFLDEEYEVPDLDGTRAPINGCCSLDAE
The target of a further assay is PDE3B (Homo sapiens, UniProt Q13370). As to the kind of experiment: PDE panel inhibitory constant (Ki) determination. It is filed as biochemical. The protocol: as §1
PDE3B, sequence (Q13370 whole entry, species assumed): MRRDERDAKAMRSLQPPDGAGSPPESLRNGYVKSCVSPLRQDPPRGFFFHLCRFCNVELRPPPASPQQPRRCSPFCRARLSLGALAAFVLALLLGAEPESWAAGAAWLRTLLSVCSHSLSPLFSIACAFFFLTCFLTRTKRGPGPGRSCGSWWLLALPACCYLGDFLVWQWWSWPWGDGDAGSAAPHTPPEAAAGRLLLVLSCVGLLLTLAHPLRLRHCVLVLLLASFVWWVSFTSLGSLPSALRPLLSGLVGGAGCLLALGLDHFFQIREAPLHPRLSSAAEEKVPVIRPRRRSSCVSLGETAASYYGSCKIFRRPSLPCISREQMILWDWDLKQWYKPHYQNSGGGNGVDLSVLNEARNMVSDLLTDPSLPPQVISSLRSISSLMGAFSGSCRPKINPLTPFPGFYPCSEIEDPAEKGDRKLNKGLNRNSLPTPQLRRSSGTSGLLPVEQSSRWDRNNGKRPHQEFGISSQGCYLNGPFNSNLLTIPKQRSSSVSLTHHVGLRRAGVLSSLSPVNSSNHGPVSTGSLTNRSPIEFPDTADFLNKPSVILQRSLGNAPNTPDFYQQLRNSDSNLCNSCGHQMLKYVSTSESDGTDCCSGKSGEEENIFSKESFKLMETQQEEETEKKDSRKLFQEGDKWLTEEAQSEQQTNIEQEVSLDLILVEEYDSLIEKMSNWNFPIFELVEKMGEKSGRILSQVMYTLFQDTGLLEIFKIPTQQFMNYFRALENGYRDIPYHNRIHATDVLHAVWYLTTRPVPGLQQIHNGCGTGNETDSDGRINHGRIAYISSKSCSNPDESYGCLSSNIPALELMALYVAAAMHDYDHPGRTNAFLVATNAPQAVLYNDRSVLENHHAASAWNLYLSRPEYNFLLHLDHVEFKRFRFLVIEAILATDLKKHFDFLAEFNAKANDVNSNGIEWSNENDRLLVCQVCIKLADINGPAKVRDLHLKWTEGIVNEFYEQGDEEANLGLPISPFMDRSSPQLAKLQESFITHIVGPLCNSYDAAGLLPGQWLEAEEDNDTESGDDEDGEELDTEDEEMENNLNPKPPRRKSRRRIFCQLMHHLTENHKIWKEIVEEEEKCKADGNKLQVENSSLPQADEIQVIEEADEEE
Another assay deals with PDE4A (Homo sapiens, UniProt P27815). The assay can be described thus: PDE panel inhibitory constant (Ki) determination. It is filed as biochemical. The protocol: as §1
PDE4A, sequence (P27815 whole entry, species assumed): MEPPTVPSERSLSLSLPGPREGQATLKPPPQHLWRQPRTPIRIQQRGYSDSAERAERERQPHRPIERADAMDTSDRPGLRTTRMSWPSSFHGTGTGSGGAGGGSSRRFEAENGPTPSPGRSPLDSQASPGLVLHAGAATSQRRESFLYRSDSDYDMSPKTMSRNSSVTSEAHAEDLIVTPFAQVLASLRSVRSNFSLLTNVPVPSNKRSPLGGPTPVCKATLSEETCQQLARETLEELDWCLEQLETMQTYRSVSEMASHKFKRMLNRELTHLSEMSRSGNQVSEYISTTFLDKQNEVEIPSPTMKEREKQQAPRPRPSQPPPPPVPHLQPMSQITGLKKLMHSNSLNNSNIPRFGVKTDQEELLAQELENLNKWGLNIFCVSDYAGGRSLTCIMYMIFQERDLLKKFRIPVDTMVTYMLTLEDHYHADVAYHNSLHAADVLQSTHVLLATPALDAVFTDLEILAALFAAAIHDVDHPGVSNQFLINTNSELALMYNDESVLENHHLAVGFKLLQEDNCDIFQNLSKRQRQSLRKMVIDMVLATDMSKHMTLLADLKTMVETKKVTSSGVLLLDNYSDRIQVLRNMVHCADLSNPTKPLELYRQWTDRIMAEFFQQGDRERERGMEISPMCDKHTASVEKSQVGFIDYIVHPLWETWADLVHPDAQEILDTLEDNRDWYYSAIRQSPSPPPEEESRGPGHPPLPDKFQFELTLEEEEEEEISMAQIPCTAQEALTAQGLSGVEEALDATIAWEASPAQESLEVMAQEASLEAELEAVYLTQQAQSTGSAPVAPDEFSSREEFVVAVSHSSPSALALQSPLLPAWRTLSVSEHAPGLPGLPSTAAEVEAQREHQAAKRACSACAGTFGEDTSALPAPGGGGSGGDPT
In a further assay the target is PDE5 (Homo sapiens, UniProt O76074). As to the kind of experiment: PDE panel inhibitory constant (Ki) determination. It is filed as biochemical. The method, then:
as §1

In assay [5] the test system is PDE6. As to the kind of experiment: PDE panel inhibitory constant (Ki) determination. It is filed as biochemical. The method, then: as §1
The target in assay [6] is T3, PDE6.
T3 construct: Ki; other: PDE6
As to the kind of experiment: PDE panel inhibitory constant (Ki) determination. It is filed as biochemical. The protocol: as §1

For the next assay, the target named is PDE7B (Homo sapiens, UniProt Q9NP56). The assay can be described thus: PDE panel inhibitory constant (Ki) determination. It is filed as biochemical. The protocol: as §1
In another assay the target is PDE8A (Homo sapiens, UniProt O60658). The assay can be described thus: PDE panel inhibitory constant (Ki) determination. It is filed as biochemical. The protocol: as §1
PDE8A, sequence (O60658 whole entry, species assumed): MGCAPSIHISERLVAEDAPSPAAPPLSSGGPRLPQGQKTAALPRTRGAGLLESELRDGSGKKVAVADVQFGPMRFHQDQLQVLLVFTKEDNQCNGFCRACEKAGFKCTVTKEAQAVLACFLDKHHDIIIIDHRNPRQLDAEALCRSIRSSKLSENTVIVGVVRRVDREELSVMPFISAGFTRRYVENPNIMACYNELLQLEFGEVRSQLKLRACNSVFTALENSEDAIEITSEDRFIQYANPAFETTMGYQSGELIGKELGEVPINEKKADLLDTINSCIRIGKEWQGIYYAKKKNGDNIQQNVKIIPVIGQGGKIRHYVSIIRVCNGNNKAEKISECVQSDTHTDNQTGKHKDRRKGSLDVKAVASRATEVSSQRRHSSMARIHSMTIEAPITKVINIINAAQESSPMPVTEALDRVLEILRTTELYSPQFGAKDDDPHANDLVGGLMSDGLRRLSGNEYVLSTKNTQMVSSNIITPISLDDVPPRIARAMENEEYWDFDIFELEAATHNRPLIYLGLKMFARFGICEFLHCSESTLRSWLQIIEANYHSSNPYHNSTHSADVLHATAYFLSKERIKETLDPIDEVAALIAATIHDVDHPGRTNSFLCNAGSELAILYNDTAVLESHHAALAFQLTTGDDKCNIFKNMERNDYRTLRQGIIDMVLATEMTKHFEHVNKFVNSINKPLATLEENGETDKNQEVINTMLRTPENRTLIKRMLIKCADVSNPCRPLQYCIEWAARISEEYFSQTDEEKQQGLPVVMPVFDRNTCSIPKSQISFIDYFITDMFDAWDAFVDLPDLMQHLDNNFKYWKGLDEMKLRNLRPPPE
Another assay concerns the target PDE9A (Homo sapiens, UniProt O76083). As to the kind of experiment: PDE panel inhibitory constant (Ki) determination. It is filed as biochemical. The method, then:
as §1

Assay [7] deals with PDE1 enzymes versus all other PDE families. The assay can be described thus: Selectivity over full panel of phosphodiesterase family members. It is filed as biochemical. The protocol:
as §1

In assay [8] the target is Compound 2 binding to PDE1 in mouse cortex. As to the kind of experiment: EGTA titration of Compound 2 binding (calcium dependency). The method, then: FIG. 4 illustrates Ca^2+-dependent binding of Compound 2, as defined in Example 1, to mouse cortex. Binding of the radioligand is prevented in the presence of EGTA, a specific chelator of calcium
In a further study, binding of Compound 2 (1.5 nM) to mouse cortex was titrated with different concentration of the calcium chelator EGTA to determine the calcium dependency of the ligand binding. […] Levels of binding activity remaining in the presence of excess (200 uM) EGTA was approximately 5% relative to the binding levels in the absence of EGTA.

The test system of assay [9] is PDE1 in striatal slices. As to the kind of experiment: Striatal slice cGMP levels after K+ depolarization. As to conditions: 1 μM compound preincubation, 1-minute high K+ depolarization. It is filed as cell-based. The protocol:
FIG. 1 illustrates the effect of PDE1 inhibition on striatal cGMP levels. Striatal slices were preincubated with either vehicle or compound, followed by a 1-minute stimulation with high K+ or vehicle. cGMP levels were normalized to baseline levels for comparison. […] PDE1 inhibition by 1 μM ITI-041 or 1 μM ITI-214 in the presence of K+ depolarization (striped bars).
Striatal tissue slice preparations were used to further study regulation of PDE1 by intracellular calcium concentration. The striatal slice preparation maintains a portion of the circuitry of the intact striatum including interneurons, nerve terminals from cortical and nigral neuronal inputs, and medium spiny neurons, which account for the majority (95%) of neurons. Depolarization of the cell membrane by increasing external potassium (K+) concentration is a well-established method of stimulating striatal slices, particularly to trigger release of neurotransmitters such as glutamate from the nerve terminals. Under these conditions, both voltage gated calcium channels and NMDA receptors are expected to open, allowing an influx of calcium into the cells. The increase in intracellular calcium can both activate PDE1 in the medium spiny neurons and activate nitric oxide synthase (NOS) in the interneurons via calcium-calmodulin binding. […]

The subject of assay [10] is PDE1 in striatal slices. The assay can be described thus: Striatal slice cGMP levels with ionomycin. It is filed as cell-based. Particulars: ionomycin 10 μM alone, in Krebs buffer. The protocol: (§2) FIG. 2 illustrates that increased Ca2+ is sufficient to unmask the active site of PDE1 and allow PDE1 inhibitor binding to the active site therefore increasing cGMP. Increased intracellular calcium is sufficient to increase cGMP levels in the presence of PDE1 inhibitor.
(§3) The calcium ionophore ionomycin was used to control intracellular calcium concentrations in the absence of depolarization. Ionomycin (10 μM, in Krebs buffer) increased intracellular calcium, as confirmed by increased calcium-sensitive phosphorylation of Ca2+/calmodulin-dependent protein kinase II (CaMKII), as shown in FIG. 2A. […] Elimination of extracellular calcium by replacing the calcium chloride in the Krebs solution with 3 mM EGTA prevented the elevation in cGMP seen with PDE1 inhibition and ionomycin.

Assay [11] deals with Ca2+/calmodulin-dependent protein kinase II (CaMKII). As to the kind of experiment: CaMKII phosphorylation (Western blotting). It is filed as cell-based. As to conditions: ionomycin 10 μM, in Krebs buffer. The protocol: as §2, §3
On the technique in general: A western blot detects proteins with antibodies after separation by electrophoresis.

Each structure is given as a SMILES string.

Usually Ki stands for a measure of affinity in units of concentration, obtained from inhibition or displacement. As a reminder, the IC50 is the concentration at which inhibition is half-maximal.

PDE1A, sequence (P54750 whole entry, species assumed): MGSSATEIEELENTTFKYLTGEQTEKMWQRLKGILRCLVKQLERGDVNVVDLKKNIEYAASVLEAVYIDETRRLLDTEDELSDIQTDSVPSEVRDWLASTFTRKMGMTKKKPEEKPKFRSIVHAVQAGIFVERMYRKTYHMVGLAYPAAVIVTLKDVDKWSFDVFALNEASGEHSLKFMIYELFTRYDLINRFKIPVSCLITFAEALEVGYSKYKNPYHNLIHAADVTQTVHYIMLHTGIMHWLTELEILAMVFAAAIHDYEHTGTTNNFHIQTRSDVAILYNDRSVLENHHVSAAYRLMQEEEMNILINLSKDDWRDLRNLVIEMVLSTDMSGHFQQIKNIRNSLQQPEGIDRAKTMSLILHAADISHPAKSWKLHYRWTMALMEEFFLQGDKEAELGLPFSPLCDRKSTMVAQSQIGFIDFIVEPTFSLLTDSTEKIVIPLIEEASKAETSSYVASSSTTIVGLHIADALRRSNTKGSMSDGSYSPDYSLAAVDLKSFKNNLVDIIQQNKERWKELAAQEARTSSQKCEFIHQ

For `CN1C(=O)c2c(nn(Cc3ccc(C4CCCN4C)cc3)c2Nc2ccc(F)cc2)N2CC(C)(C)N=C12` (stereo not shown) [Compound 1, 3-((4-fluorophenyl)amino)-5,7,7-trimethyl-2-(4-(1-methylpyrrolidin-2-yl)benzyl)-7,8-dihydro-2H-imidazo[1,2-a]pyrazolo[4,3-e]pyrimidin-4(5H)-one], the “Ratio PDEx/PDE1A” value is on record as 1,561 in assay [1]; 0.67 in the assay on PDE1 (Bovine Brain) [3]; 27,687 at PDE10A; 26,289 on PDE11A; 1 on PDE1A; 5.9 on PDE1B. In addition, the “Ratio PDEx/PDE1A” value on PDE1C is on record as 0.85; on PDE2A, >64,589; at PDE3B, 50,983; on PDE4A, 4,263; at PDE5 it was 31,595; in the assay with PDE6 [5], 9,122. Further, the “Ratio PDEx/PDE1A” value was 8,448 at PDE7B, >64,589 at PDE8A and >64,589 on PDE9A. The inhibition constant Ki is 2400 nM in assay [2]; 1 nM at PDE1 (Bovine Brain) [4]; 42.9 µM at PDE10A; 40.7 µM at PDE11A; 1.5 nM on PDE1A; 9.2 nM at PDE1B. The Ki was 1.3 nM at PDE1C; greater than 100 µM at PDE2A; 78.9 µM at PDE3B; 6.6 µM at PDE4A; 48.9 µM on PDE5; 14.1 µM at PDE6 [6]. Moreover, the Ki on PDE7B is 13.1 µM; on PDE8A it was greater than 100 µM; at PDE9A, greater than 100 µM. The “selectivity toward all other PDE families” value in [7] is reported as greater than 1000 fold.
On to `O=C(O)CN(CCOCCOCCN(CC(=O)O)CC(=O)O)CC(=O)O` [EGTA], for which, in assay [8] (Compound 2 1.5 nM, mouse cortex, read-out: IC50 for decrease of specific binding of Compound 2), the 50% inhibitory concentration (IC50) is 7.7 µM. Moreover, the “binding of the radioligand in the presence of EGTA” value in assay [8] (FIG. 4, mouse cortex) was “prevented”. The “binding activity remaining relative to absence of EGTA” value in assay [8] (excess (200 uM) EGTA, mouse cortex) is “approximately 5%”.
With `CN1C(=O)c2c(nn(Cc3ccc(-c4cccc(F)n4)cc3)c2Nc2ccccc2)N2C1=N[C@@H]1CCC[C@@H]12` [ITI-214], the “striatal cGMP levels” value in the assay on PDE1 in striatal slices [9] is recorded as “increased cyclic nucleotide levels”.
As to `C[C@H](CCC(=O)O)C[C@H](C)C[C@H](C)C(=O)/C=C(\O)[C@H](C)C[C@H](C)C/C=C/[C@@H](C)[C@@H](O)[C@@H](C)[C@@H](O)C[C@@H]1CC[C@@](C)([C@H]2CC[C@@](C)([C@@H](C)O)O2)O1` [Ionomycin, ionomycin], the “striatal cGMP levels” value with PDE1 in striatal slices [10] was “did not lead to elevated cGMP levels”. For the same molecule, in assay [11], the “calcium-sensitive phosphorylation of CaMKII” value is “increased”.

Values taken from US20220184240A1, “ORGANIC COMPOUNDS” (INTRA-CELLULAR THERAPIES, INC., priority 2019, published 2022).
